Results taken from the supplement of paper PMC10307832.

Legend:
Trametinib + Bortezomib = compound: CC(=O)Nc1cccc(-n2c(=O)n(C3CC3)c(=O)c3c(Nc4ccc(I)cc4F)n(C)c(=O)c(C)c32)c1 [Trametinib] + CC(C)C[C@H](NC(=O)[C@H](Cc1ccccc1)NC(=O)c1cnccn1)B(O)O [Bortezomib] (partner 0.002 µM); assay: relative viability (nuclei count vs DMSO), 5 days (fraction); higher = more cells survive
Outline: (§1)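 Lung cancer cell lines in 1536-well plates got either a single drug or a fixed anchor-drug dose together with five library-drug doses (not always all listed) in √10 steps, by pin tool, on the day after seeding. Nuclei were counted after 5 days, and relative viability is the treated-to-vehicle ratio of nuclei counts. Values are medians of duplicate plates.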

Trametinib + Decitabine = compound: CC(=O)Nc1cccc(-n2c(=O)n(C3CC3)c(=O)c3c(Nc4ccc(I)cc4F)n(C)c(=O)c(C)c32)c1 [Trametinib] + Nc1ncn([C@H]2C[C@H](O)[C@@H](CO)O2)c(=O)n1 [Decitabine] (partner 2 µM); assay: as above
Outline: as §1

Row | Cell Line | relative viability (Trametinib + Bortezomib; first compound 0.0025 µM) | relative viability (Trametinib + Bortezomib; first compound 0.007906 µM) | relative viability (Trametinib + Bortezomib; first compound 0.025 µM) | relative viability (Trametinib + Bortezomib; first compound 0.07906 µM) | relative viability (Trametinib + Bortezomib; first compound 0.25 µM) | relative viability (Trametinib + Decitabine; first compound 0.0025 µM) | relative viability (Trametinib + Decitabine; first compound 0.007906 µM) | relative viability (Trametinib + Decitabine; first compound 0.025 µM) | relative viability (Trametinib + Decitabine; first compound 0.07906 µM) | relative viability (Trametinib + Decitabine; first compound 0.25 µM)
1 | NCI-H1650 | 0.218 | 0.19 | 0.182 | 0.198 | 0.188 | 0.39 | 0.467 | 0.369 | 0.399 | 0.206
2 | NCI-H1993 | 0.861 | 0.834 | 0.558 | 0.48 | 0.596 | 0.556 | 0.567 | 0.582 | 0.57 | 0.524
3 | NCI-H2405 | 0.999 | 0.909 | 0.657 | 0.597 | 0.508 | 0.777 | 0.66 | 0.586 |  | 0.544
4 | NCI-H661 | 0.82 | 0.689 | 0.728 | 0.534 | 0.54 | 0.522 | 0.537 | 0.484 | 0.412 | 0.431
